The values below come from paper PMC3578829, “A Small Molecule (Pluripotin) as a Tool for Studying Cancer Stem Cell Biology: Proof of Concept” (PLoS ONE, 2013).

The subject of experiment [1] is COLO 205. The experiment is described as follows: Sphere formation assay (5% FBS). Also noted: key: Y indicates the presence of spheres following SC-1 treatment. The format is cell-based. The method, then:
(§1) The 7 colon tumor lines were seeded in […] tissue culture treated dishes (Falcon) at low density (62,500 cells/ml) in complete media containing 5% FBS one day prior to addition of 0.1 µM SC-1 (final cell concentration 31,250 cells/ml). Photomicrographs were prepared on day 1 and day 5 following compound treatment utilizing a Zeiss XM inverted microscope and CCD cooled-camera imaging system. Nonadherent spheres were defined as floating, circular structures with well defined borders. Occasionally, exceptionally large spheres re-adhered to the tissue culture surface. Aggregates of floating cells or grape-like clusters were not considered spheres.

Experiment [2] relates to HCT-116. Nature of the experiment: Sphere formation assay (5% FBS). Also noted: key: Y indicates the presence of spheres following SC-1 treatment. The format is cell-based. As for the experimental part:
as §1

The subject of experiment [3] is HT29. Nature of the experiment: Sphere formation assay (5% FBS). In kind it is cell-based. On the set-up: key: Y indicates the presence of spheres following SC-1 treatment. The method, then:
as §1

The test system of experiment [4] is COLO 205. Nature of the experiment: FACS analysis of putative CSC surface markers. The format is cell-based. The conditions noted are these: five days of SC-1 treatment. The source says: A BD FACsAria (BD Biosciences, San Jose, CA) was utilized for FACS analysis according to standard procedures. The instrument was equipped with a 488 nm 100 mW blue laser, a 638 nm 30 mW red laser, and a 405 nm 50 mW violet laser. The software package Diva 5.0 (BD Biosciences) was used for collection and analysis of data. The alignment of the three lasers in the flow cell was verified prior to running tumor cell samples by running Rainbow Beads (Spherotech). The six colors being used in the analysis were then compensated to account for spectral overlap emitted by the fluorochromes within each laser as well as across the lasers using a semi-automated process. […] The data was then run through the Diva software compensation matrices and the amount of “spectral bleed” from other fluorochromes into the fluorochrome of interest’s channel was determined and automatically compensated.
Treated and untreated cells (1×10^6 cells/condition) were harvested with trypsin EDTA (Invitrogen), washed, and then labeled with a six antibody cocktail (antibodies against the following epitopes: CD44, CD24, CD133, CD326, CD166, and P-glycoprotein in PBS without calcium and magnesium supplemented with 2% FBS) or appropriate isotype control antibodies. […] The specific amounts needed for each labeled antibody were determined through titration studies. […]

The test system of experiment [5] is HCT-116. The experiment is described as follows: FACS analysis of putative CSC surface markers. The format is cell-based. Also noted: key to Change in Surface Marker Expression: Y indicates increased putative surface marker expression using the panel of 6 antibodies described in the Material and Methods. An excerpt:
(§2) A BD FACsAria (BD Biosciences, San Jose, CA) was utilized for FACS analysis according to standard procedures. The instrument was equipped with a 488 nm 100 mW blue laser, a 638 nm 30 mW red laser, and a 405 nm 50 mW violet laser. The software package Diva 5.0 (BD Biosciences) was used for collection and analysis of data. The alignment of the three lasers in the flow cell was verified prior to running tumor cell samples by running Rainbow Beads (Spherotech). The six colors being used in the analysis were then compensated to account for spectral overlap emitted by the fluorochromes within each laser as well as across the lasers using a semi-automated process. This was done using compensation beads (BD Biosciences) that were coated with anti-mouse antibodies. The beads were incubated with each individual antibody used in the six-color panel for 15 min at room temperature. An unstained tube was also prepared. The unstained beads along with beads stained for each fluorochrome were run individually, recording 5000 events. The data was then run through the Diva software compensation matrices and the amount of “spectral bleed” from other fluorochromes into the fluorochrome of interest’s channel was determined and automatically compensated.
(§3) Treated and untreated cells (1×10^6 cells/condition) were harvested with trypsin EDTA (Invitrogen), washed, and then labeled with a six antibody cocktail (antibodies against the following epitopes: CD44, CD24, CD133, CD326, CD166, and P-glycoprotein in PBS without calcium and magnesium supplemented with 2% FBS) or appropriate isotype control antibodies. An unstained control was also prepared. The specific amounts needed for each labeled antibody were determined through titration studies. All cells were incubated with antibody for 15 minutes on ice and in the dark. The cells were then washed, resuspended in buffer, and analyzed on the FACsAria. For each experimental condition, the isotype control tube was evaluated first and 10,000 events were collected. Forward vs. side scatter gates were then established to eliminate likely debris. Further gating was determined for each conjugated isotype control antibody such that 1% of the population was considered a positive staining event. Cells stained with specific labeled antibodies were then evaluated and 10,000 events collected.

Experiment [6] deals with HT29. The experiment is described as follows: FACS analysis of putative CSC surface markers. In kind it is cell-based. On the set-up: key to Change in Surface Marker Expression: Y indicates increased putative surface marker expression using the panel of 6 antibodies described in the Material and Methods.
Excerpt: as §2, §3

In the next experiment the test system is SW-620. The experiment is described as follows: FACS analysis of putative CSC surface markers. The format is cell-based. Also noted: key to Change in Surface Marker Expression: Y indicates increased putative surface marker expression using the panel of 6 antibodies described in the Material and Methods.
Excerpt: as §2, §3

In another experiment the test system is colon cell lines. The experiment is described as follows: NCI Anticancer Screen growth inhibition. In kind it is cell-based. As to conditions: 2 day exposure; mean±s.e.m., n = 7 colon cell lines. The source says:
(n = 6, paired Student’s t test, p = 0.02, Table S1). […] Finally, in a representative SC-1 sensitive tumor line (HCT-116), there was no difference in the distribution of the SC-1 treated cell population across the cell cycle compared to control treated cells (Figure S4).

The next experiment concerns the target RSK2 (Homo sapiens, UniProt P51812). The experiment is described as follows: In vitro kinase inhibition assay (modified Nguyen et al.). In kind it is biochemical. As to conditions: RSK2 N-terminal domain; mean±SD, n = 5; concentration inhibiting 50% of control activity. The method, then:
The RSK2 in vitro kinase inhibition assay utilized was a modification of protocols established by Nguyen et al.. Additional protocols that confirmed the results depicted in Figure 4 and evaluated kinase inhibitory activity in a random selection of protein kinases (Table 3) were conducted at Reaction Biology Corporation (Malvern, PA). This was a miniaturized ^33P-based screening assay.

Experiment [7] has as its system HT29. Nature of the experiment: Sphere formation in serum free media and low attachment vessels. As to conditions: serum free media, low attachment vessels, 0.1 µM SC-1, Day 1 and Day 5. In kind it is cell-based. As for the experimental part: HT29 tumor line was cultured at 0.5–8 cells/µl in serum free media (RPMI 1640 containing EGF (20 ng/ml), bFGF (10 ng/ml) and B27 supplement) one day prior to addition of SC-1 (0.1 µM). The number of spheres per well was counted on Day 1 (A) and Day 5 (B) following treatment. Statistically significant effects (*p<0.05) for SC-1 treatment were found at all conditions where spheres formed. A representative experiment of 3 is shown here. (PDF) Click here for additional data file.

Another experiment concerns phospho-ERK1/2. Also noted: method as in PMID 17088537. The conditions noted are these: murine embryonic stem cells; 30 minutes of exposure; cited from earlier work.
Setting [8] is: five days of SC-1 treatment, mean±s.e.m., n = 3.

Molecules are shown by their SMILES.

Chain of RSK2 (P51812 whole entry, species assumed, the tested form may be a part): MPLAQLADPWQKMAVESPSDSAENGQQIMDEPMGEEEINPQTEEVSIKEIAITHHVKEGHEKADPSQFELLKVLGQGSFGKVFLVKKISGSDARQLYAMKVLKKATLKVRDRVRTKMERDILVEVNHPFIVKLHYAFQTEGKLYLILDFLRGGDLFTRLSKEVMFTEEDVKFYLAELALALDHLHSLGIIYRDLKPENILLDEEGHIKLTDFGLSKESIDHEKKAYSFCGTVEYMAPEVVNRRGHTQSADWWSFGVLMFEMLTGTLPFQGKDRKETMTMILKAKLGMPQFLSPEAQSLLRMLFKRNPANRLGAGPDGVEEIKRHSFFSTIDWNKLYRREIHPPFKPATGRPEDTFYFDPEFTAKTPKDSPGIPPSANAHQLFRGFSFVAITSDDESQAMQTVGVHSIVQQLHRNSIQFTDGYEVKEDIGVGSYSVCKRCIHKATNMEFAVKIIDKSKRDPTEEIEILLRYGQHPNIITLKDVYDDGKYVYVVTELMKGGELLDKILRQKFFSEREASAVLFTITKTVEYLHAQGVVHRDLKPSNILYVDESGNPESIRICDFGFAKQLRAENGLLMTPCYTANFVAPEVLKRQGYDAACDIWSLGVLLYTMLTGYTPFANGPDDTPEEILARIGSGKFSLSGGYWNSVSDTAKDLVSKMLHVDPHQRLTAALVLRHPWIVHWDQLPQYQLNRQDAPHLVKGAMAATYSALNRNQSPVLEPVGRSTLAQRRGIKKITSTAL

As for `Cc1cc(Nc2ncc3c(n2)N(C)C(=O)N(c2cc(NC(=O)c4cccc(C(F)(F)F)c4)ccc2C)C3)n(C)n1` [SC-1], the Sphere formation entry in the experiment on COLO 205 [1] (0.1 µM SC-1, 5% FBS) was “sphere formation occurred in a fraction”; in the experiment on COLO 205 [1] (summary of SC-1 effects) it was “Y”; in the experiment on HCT-116 [2] (0.1 µM SC-1, 5% FBS, 24 hrs), “uniform nonadherent spheres with well-defined borders formed”; with HCT-116 [2] (summary of SC-1 effects), “Y”; in the experiment with HT29 [3] (0.1 µM SC-1, 5% FBS, 24 hrs), “uniform nonadherent spheres with well-defined borders formed”; in the experiment on HT29 [3] (summary of SC-1 effects), “Y”. In addition, the “Expression of the putative CSC markers” value with COLO 205 [4] is reported as “No increased expression”. Moreover, the “CD44+ CD24- subpopulation” value in the experiment with HCT-116 [5] (after SC-1 treatment) is “increased”. In addition, the “Change in Surface Marker Expression” value in the experiment with HCT-116 [5] (marker CD44+ CD24−, summary of SC-1 effects) was “Y (CD44+ CD24−)”; in the experiment on HT29 [6] (marker CD133+, summary of SC-1 effects), “Y (CD133+)”; with SW-620 (marker CD44+, summary of SC-1 effects), “Y (CD44+)”. The “Cells expressing the CD133 glycosylated epitope” value in the experiment with HT29 [6] (setting [8]) is listed as 27.6±3.6 % positive. Moreover, in the experiment with SW-620 (setting [8]), the CD44 subpopulation amounted to 74.1±13.4 % positive. Further, the GI50 with colon cell lines turned out to be 0.091 ± 0.07 µM. The same molecule had an EC50 on RSK2 of 2.5 ± 1.8 µM. Also, the “Number of spheres per well vs control” value with HT29 [7] is “Increased Sphere Formation”. In addition, the phospho-ERK1/2 protein levels entry in the experiment with phospho-ERK1/2 was “inhibited”.
